Test results published in US5760001A, “Cytokine restraining agents and methods of use in pathologies and conditions associated with altered cytokine levels” (Trega Biosciences, Inc., priority 1995, dated 1998).

Tests used:
Assay type in all cases: in vivo
IL-6 = assay: Reduction of LPS-induced interleukin-6 levels in mice; conditions: 300 μg/mouse; LPS treated mice; vs untreated control mice
Description: Balb/c mice were grouped and treated as described in Example III, above. Blood samples were obtained from the orbital sinus at various times up to six hr and serum was collected and diluted as described above. A 100 μl aliquot was assayed for IL-6 levels using an IL-6-specific ELISA by a modification of the method of Starnes et al., J. Immunol. 145:4185-4194 (1990), which is incorporated herein by reference.
The mean (±SEM) IL-6 level in six mice from each group was determined and the percent reduction in IL-6 was calculated.

Sprague-Dawley rats = assay: Renal ischemia-reperfusion injury; set-up: RVR (renal vascular resistance): unit not given here; conditions: I/R + EX-2 (50 or 500 μg/kg iv before 1 hr clamping), after 60 min reperfusion
Description: Sprague-Dawley rats (250-300 g) were anesthetized with Inactin® (120 mg/kg). After deep anesthesia was assured, the rats were cannulated in the trachea with polyethylene (PE) tubing (PE 240), jugular vein, femoral artery, bladder (PE 50 for previous 3 cannulations), and left ureter (stretched PE 50). Once cannulation was completed, a 2 cm flank incision above the left kidney was performed and the renal pelvis and vascular bundle were exposed. The tissue surrounding the left renal artery was gently dissected away from the artery. The exposed renal artery was clamped for 1 hr using a small vascular cross-over clamp.
Just prior to clamping, EX-2 (50 or 500 μg/kg), ketorolac (KETO, 1 mg/kg), or vehicle was administered intravenously (iv) After 1 hr of clamping (ischemia), the clamp was gently removed with care taken to avoid damaging either the renal artery or nerves. An infusion of ^3 H-Inulin (NEN/Dupont; Wilmington, Del.), (0.6 μCi/ml in phosphate buffered saline (PBS)) (2 ml/hr) was initiated at a constant rate of […]. After 60 min of reperfusion, glomerular filtration rate (GFR), renal plasma flow (RPF) and renal vascular resistance (RVR) were assessed in two 30 min collection periods. The kidney was then removed for analysis. Sham operated and clamped rats served as controls for the above group. Contralateral renal function was utilized to determine the stability of the rat's renal function during the measured period.

female Balb/c mice = assay: Arachidonic acid-induced ear swelling; conditions: 100 μg/mouse IP 30 min prior to AA; 60 min after AA application
Description: Experiments were performed using female Balb/c mice weighing 18-23 grams. Saline or 100 μg EX-2 or EX-3 was administered IP, 30 min prior to topical application of arachidonic acid (AA). A 10 μl pipet was used to apply 10 μl AA solution (100 mg/ml ethanol; Calbiochem-Novabiochem; San Diego Calif.) to the inner and outer surfaces of the right ear of each mouse. Ten μl ethanol, alone, was applied to the inner and outer surface of the left ear of each mouse.
Ear thickness was measured with a hand-held spring loaded caliper immediately before and 60 min after AA application. Increase in ear thickness was calculated by subtracting the change observed in the control ear from the change observed in AA-treated ear. The value for each group (saline and control) is the average of the swelling observed in the individual mice in each group. The percent reduction of swelling is based on the swelling observed in the saline control group.

male Sprague-Dawley rats [1] = assay: Cyclosporine-induced nephrotoxicity; conditions: for extracellular fluid volumes (ECF): second study, control 27.6±1.9, CsA and vehicle 27.5±1.7
Description: In the first study, male Sprague-Dawley rats (n=43) with a weight range of 240-290 g at the initiation of the cyclosporine A (CsA) treatment were divided into 4 weight matched groups. The groups were as follows: (1) Control: no CsA, no EX-2, treatment only with CsA vehicle (PBS) PO and EX-2 vehicle (also PBS) IP; (2) CsA: treatment with CsA (50 mg/kg in PBS administered PO daily at 0830 hr for 9 days) and IP injections of PBS (Ex-2 vehicle); (3) CsA and 50 μg: CsA treatment identical to group 2 with the addition of EX-2 (50 μg/kg IP administered daily at 0800 and 1700 hr in EX-2 vehicle); and (4) CsA and 500 μg: CsA treatment identical to groups 2 and 3, and EX-2 treatment protocol similar to group 3 except that the dose of EX-2 was 500 μg/kg BW. After deep anesthesia was assured, the rats were cannulated in the trachea (PE 240) jugular vein, femoral artery, and bladder (PE 50 for the previous 3 cannulations).After cannulation, infusion of ^3 H-inulin was initiated 50 min prior to the measurement period to assess glomerular filtration rate, renal blood flow and plasma flow. Renal blood flow was determined by the inulin extraction technique. At the end of the study, the kidneys were removed for histological analysis.
In the second study, male Sprague-Dawley rats (n=31) with a weight range of 240-290 g at the time of initiation of the cyclosporine treatment were divided into 4 weight-matched groups. The time course and protocol of this study matched the first study with the following exceptions: (1) The daily dose of CsA was reduced to 30 mg/kg and was administered subcutaneously (SC) and (2) the 50 μ/kg dose of EX-2 was substituted with a twice daily dose of 200 μg/kg. The 500 μg/kg dose of EX-2 was repeated in this study. Renal hemodynamics were determined and extracellular fluid volumes were also assessed.
In the second studio, where extracellular fluid volumes (ECF) were measured, there were no differences in ECF among control and treatment groups (27.6±1.9 in control, 27.5±1.7 in CsA and vehicle, 26.2±0.9 in CsA+200 μg/kg EX-2, and 25.7±1.4% in CsA+500 μg/kg EX-2).
The results from the two experiments are shown in FIGS. 1a and 1b and provide evidence that a cytokine restraining peptide of the present invention reduces cyclosporine-induced nephrotoxicity and the damage caused thereby.

male Sprague-Dawley rats [2] = assay: Glomerulonephritis (nephrotoxic serum), albuminuria; conditions: EX-2 100 μg/kg per injection, 3 times per day; nephrotoxic serum iv
Description: Male Sprague-Dawley rats (weight 194-248 g) were immunized by subcutaneous injection of 1 mg normal rabbit IgG (Sigma Chemical Co.) in Freund's complete adjuvant (Sigma Chemical Co.). EX-2 was administered 3 times per day (100 μg/kg per injection) throughout the duration of the experiment. Seven days later, the rats were injected with 1.5 ml of nephrotoxic serum iv via dorsal penile vein. Urine, plasma, and serum were collected before injection of nephrotoxic serum at 4, 6, 24, 48, and 96 hr thereafter. […] Albuminuria was quantified by immunoelectrophoresis.

Ac-Nle-Gln-His-(D)Phe-Arg-(D)Trp-Gly-NH2 [EX-2]
Reduction in IL-6 levels (IL-6): 60%
GFR (glomerular filtration rate) (Sprague-Dawley rats; I/R + PBS 0.2 ± 0.1, Sham 1.0 ± 0.1): 0.5 ± 0.1
RPF (renal plasma flow) (Sprague-Dawley rats; I/R + PBS 0.8 ± 0.2, Sham 4.2 ± 0.4): 2.3 ± 0.3
RVR (renal vascular resistance) (Sprague-Dawley rats; I/R + PBS 6.6 ± 2.1, Sham 1.0 ± 0.1): 1.8 ± 0.2
Reduction in arachidonic acid-induced Ear Swelling (female Balb/c mice): 72%
changes in ECF as a result of treatment (male Sprague-Dawley rats [1]; CsA-treated rats): no changes
renal blood flow (male Sprague-Dawley rats [1]; CsA-treated rats): not different from control
urinary protein excretion compared to CsA-treated rats (male Sprague-Dawley rats [1]; CsA-treated rats): did not increase
urinary protein excretion normalized to glomerular filtration rate (male Sprague-Dawley rats [1]; CsA-treated rats): trend to decreased
GFR compared to CsA and vehicle controls (male Sprague-Dawley rats [1]; both studies, CsA-treated rats): significantly increased
extracellular fluid volumes (ECF) (male Sprague-Dawley rats [1]; CsA 30 mg/kg SC + 200 μg/kg EX-2 twice daily): 26.2±0.9%
extracellular fluid volumes (ECF) (male Sprague-Dawley rats [1]; CsA 30 mg/kg SC + 500 μg/kg EX-2 twice daily): 25.7±1.4%
Glomerulonephritis: Albumin (mg/day), % Reduction of induced increase (male Sprague-Dawley rats [2]): 62%
